Assay results as given in patent publication US8222293B2, “Treating learning deficits with inhibitors of Hmg CoA reductase” (Regents of the University of Carolina, priority 2004, dated 2012).

Legend:
[1] = tested on: phosphorylated p44/42 MAPK; assay: Western blot for p44/42 MAP kinase phosphorylation in hippocampal extracts of treated mice
[2] = tested on: p21Ras-GTP; assay: p21Ras activity assay (GST-Raf1-RBD pull-down) in hippocampal extracts of treated mice
[3] = tested on: nf1+/− mice; assay: Water maze test (spatial learning); assay type: in vivo, mouse
Source text: The basic protocol for the water maze experiments has been previously described. Mice from the 129T2/SvEmsJ-C57B/6N F1 genetic background were given two trials per day (30-s inter-trial intervals) with a probe trial (60 s) at the end of training day 5 and 7.
Spatial problems are among the most common cognitive deficits in individuals affected with NF1. […] Mice were trained with two trials per day.
In the probe trials the platform was removed from the pool and the mice were allowed to search for it for 60 seconds.

[4] = tested on: nf1+/− mice; assay: Prepulse inhibition; assay type: in vivo, mouse
Procedure: Following an acclimation period of 5 min, mice were presented with a total of 20 noise bursts (40 ms duration, 120 dB, <1 ms rise/fall time). In the prepulse inhibition phase, mice were presented with a total of 90 trials. Three prepulse intensities were tested: 70, 75 and 80 dB. Prepulses were 20 ms in duration with a rise/fall time of less than 1 ms. For each prepulse intensity, there were three types of trial: prepulse alone, prepulse/startle stimulus and startle stimulus alone. In the prepulse/startle stimulus trial, the onset of the prepulse preceded the onset of the startle stimulus by 100 ms. Background noise levels were maintained at 68 dB throughout testing, and the trials were spaced […].
This task assays sensory “gating” of environmental stimuli. A powerful and sudden acoustic stimulus will elicit a whole body startle response. When the startle producing stimulus is preceded by a weak pre-stimulus (by approximately 100 milliseconds) the startle response is inhibited in normal persons and animals. Previous studies show a high incidence of ADHD in NF1 and support an association between ADHD and learning problems in these children.

[5] = tested on: hippocampal slices of nf1+/− mice; assay: Hippocampal LTP at the Schaffer collateral/CA1 synapse in slices from treated mice; assay type: in vivo, mouse; settings: 10 mg/kg s.c. once per day for 4 days
[6] = tested on: nf1+/− mice; assay: Lateralized reaction time task (attention); assay type: in vivo, mouse; settings: 10 mg/kg oral pellets daily, target stimulus duration 0.5 sec
Source text: Mice were fed 1.5 gm of chow every day in their home cages (1 hr after experiment). […] Mice were trained in miniaturized versions of a “5-choice” box (Med Associates Inc., St Albans Vt.) that was equipped with a curved wall with horizontal array five apertures that could be internally illuminated. The opposite wall was fitted with a food receptacle where pellets were delivered as reinforcers. The animals were shaped to produce a “poke and hold” response in the central aperture. A correct response was scored when the animals correctly poked a side aperture that had been indicated during the poke and hold response. […] When animals performed at 75% accuracy at 1 second target stimulus duration they entered the test phase. Mice were tested on a variable duration condition in which the target aperture was illuminated for 0.5, 1.0 or 2.0 sec (varied from trial to trial within the session). Correct responses/total trials were measured, which vary as a function of the target stimulus duration and was therefore analyzed with repeated measures analysis of variance (the repeated measure being stimulus duration).
Besides spatial impairments, NF-1 patients also show attention deficits. […] For this purpose, a lateralized reaction-time task, a test that measures divided visuo-spatial attention, was used. […]

Question: Which “amount of phosphorylated p44/42 MAPK (the active form) in hippocampus” value ([1]; WT mice, 0-50 mg/kg s.c. once per day for 4 days, 6 hours after final injection) does the source give for CC[C@H](C)C(=O)O[C@H]1C[C@@H](C)C=C2C=C[C@H](C)[C@H](CC[C@@H]3C[C@@H](O)CC(=O)O3)[C@H]21 [lovastatin] here?
Answer: The value was “decreased the amount of phosphorylated p44/42 MAPK (the active form) in a dose-dependent fashion”.

Question: And the “levels of phosphorylated p44/42 MAPK in hippocampus” value ([1]; nf1+/− mice, 10 mg/kg s.c. once per day for 4 days)?
Answer: Its value is “decreased the levels of phosphorylated p44/42 MAPK”.

Question: What about the “hippocampal levels of p21Ras-GTP” value ([2]; WT as printed in b156 (FIG. 1c)) of the same molecule?
Answer: Its value is “decreased the hippocampal levels of p21Ras-GTP in WT”.

Question: And the “active p21Ras (p21Ras-GTP)” value ([2]; nf1+/− mice, FIG. 1c legend)?
Answer: Its value is “decreased active p21Ras (p21Ras-GTP)”.

Question: What about the “proximity to exact platform position versus opposite position, probe trial” value ([3]; WT mice on lovastatin, t19=2.159, P<0.05) of the same molecule?
Answer: Its value is “searched closer to the exact platform position than to the opposite position in the pool”.

Question: What about the “cognitive function in control mice” value ([3]; dose effective in nf1+/− mice (10 mg/kg)) of the same molecule?
Answer: The value was “did not affect cognitive function in control mice”.

Question: And the “proximity to exact platform position versus opposite position, probe trial” value ([3]; nf1+/− mice on lovastatin, t20=2.170, P<0.05)?
Answer: Its value is “searched closer to the exact platform position than to the opposite position in the pool”.

Question: What about the “time spent in training quadrant, day 7 probe trial, versus WT” value ([3]; nf1+/− mice, 10 mg/kg s.c. 3 days before training then 6 hours before training daily, P=0.862) of the same molecule?
Answer: Its value is “spent as much time as WTs in the training quadrant”.

Question: And the “time spent in training quadrant, day 7 probe trial, versus mutants given placebo” value ([3]; nf1+/− mice, 10 mg/kg s.c., P<0.05)?
Answer: Its value is “significantly more time than mutants given placebo”.

Question: What about the “PPI performance, main effect of treatment” value ([4]; 10 mg/kg oral pellets daily, F1,30=6.61, P<0.05) of the same molecule?
Answer: Its value is “resulted in an increase in performance”.

Question: What about the “PPI performance, versus WT animals on placebo” value ([4]; nf1+/− animals on lovastatin, PLSD P=0.877) of the same molecule?
Answer: The value was “indistinguishable from that of WT animals on placebo”.

Question: And the “LTP deficits of nf1+/− mice” value [5]?
Answer: The value was “completely reversed the LTP deficits”.

Question: And the “amount of LTP induced, versus WT” value ([5]; nf1+/− mice, PLSD P=0.602)?
Answer: Its value is “equivalent to that of WTs”.

Question: What about the “amount of LTP induced, versus untreated nf1+/− mutants” value ([5]; nf1+/− mice, five theta-burst stimulation, PLSD P<0.05) of the same molecule?
Answer: Its value is “significantly higher than that induced in mutants”.

Question: What about the “correct response rate, versus nf1+/− given placebo” value ([6]; PLSD P<0.05) of the same molecule?
Answer: The value was “significantly higher”.

Question: And the “correct response rate, versus WT mice” value ([6]; PLSD P=0.148)?
Answer: Its value is “indistinguishable from that of WT mice”.
